doi:10.1101/2025.02.03.636334v1 (biorxiv, 2025)
In brackets after ≈: the same amount, converted by molar mass.

Assays:
[1] = target: T1, KasA (Mycobacterium tuberculosis, UniProt P9WQD9); test: KasA-MabA coupled assay, NADPH at […] nm; assay type: biochemical; conditions: read-out: % inhibition at 25 μM
T1 sequence (P9WQD9 1-416): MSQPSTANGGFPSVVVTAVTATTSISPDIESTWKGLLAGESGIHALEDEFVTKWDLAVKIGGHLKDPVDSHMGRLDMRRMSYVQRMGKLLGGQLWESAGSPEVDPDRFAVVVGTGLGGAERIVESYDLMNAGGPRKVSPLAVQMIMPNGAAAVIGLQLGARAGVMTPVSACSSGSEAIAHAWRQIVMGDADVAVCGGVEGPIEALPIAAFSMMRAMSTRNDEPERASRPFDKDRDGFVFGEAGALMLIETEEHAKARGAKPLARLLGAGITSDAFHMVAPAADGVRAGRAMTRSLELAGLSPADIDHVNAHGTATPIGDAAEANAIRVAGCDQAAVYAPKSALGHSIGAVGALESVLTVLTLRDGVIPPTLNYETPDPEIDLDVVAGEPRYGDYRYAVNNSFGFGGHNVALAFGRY

[2] = target: T1, KasA; test: microscale thermophoresis, RED-NHS labelled KasA; assay type: binding
[3] = test system: M. tuberculosis H37Rv; test: microbe, parasite or virus in culture; conditions: Mycobacterium tuberculosis, 192 h, read-out: Mtb MIC (µM)
[4] = target: T1, KasA; test: biochemical; conditions: read-out: % KasA Inhibition at 25 µM Compound
[5] = target: T2, MabA (Mycobacterium tuberculosis, UniProt P9WGT3); test: biochemical; conditions: read-out: % of control remaining
[6] = target: T2, MabA; test: MabA NADPH oxidation at […] nm; assay type: biochemical

T2 sequence (P9WGT3 whole entry): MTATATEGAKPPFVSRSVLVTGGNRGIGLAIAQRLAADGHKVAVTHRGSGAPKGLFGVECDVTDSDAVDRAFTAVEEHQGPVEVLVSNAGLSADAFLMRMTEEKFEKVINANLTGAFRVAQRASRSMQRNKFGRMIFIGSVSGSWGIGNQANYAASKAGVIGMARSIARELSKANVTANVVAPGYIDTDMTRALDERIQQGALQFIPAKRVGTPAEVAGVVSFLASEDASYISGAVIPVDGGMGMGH

Compound	inhibition at 25 µM [1] [%]	Kd [2] [µM]	MIC [3] [µM]	inhibition at 25 µM [4] [%]	remaining activity at 25 µM [5] [%]	IC50 [6] [µM]
O=C(Nc1nc(-c2ccccn2)cs1)c1cc(-c2ccccc2)nc2ccc(Br)cc12 [JSF-5071, 6-bromo-2-phenyl-N-(4-(pyridin-2-yl)thiazol-2-yl)quinoline-4-carboxamide]	12.7 ± 4.8	4.78 ± 1.3				
O=C(Nc1nc(-c2ccccn2)cs1)c1cc(-c2ccccc2)nc2ccc(Br)cc12 [Z29466477]			0.12 (≈ 0.0585 µg/mL)	15.3 ± 12.8	92.1 ± 16.2	
O=C(Nc1ccc(S(=O)(=O)Nc2cccc(C(F)(F)F)c2)cc1)c1cc2ccccc2oc1=O [Z31753778]			0.78 (≈ 0.381 µg/mL)	12 ± 8.8	97.9 ± 14.6	
O=C(C1=C2SC=C(c3ccccc3)N2CCCC1)c1cc(-c2ccccc2Cl)nc2ccccc12 [Z56802551]			12 (≈ 5.94 µg/mL)	15.6 ± 11.1	104 ± 22.4	
Cc1ccc(-c2cc(C(=O)N3CCC(C(=O)Nc4ccc5c(c4)OCO5)CC3)c3ccccc3n2)cc1 [Z99494139]			1.5 (≈ 0.74 µg/mL)	11.5 ± 7	101 ± 20.4	
O=C(Nc1ccc2c(c1)OCO2)C1CCN(C(=O)c2cc(-c3ccc(F)cc3)nc3ccccc23)CC1 [Z99494149]			3.1 (≈ 1.54 µg/mL)	12 ± 8.8	95.5 ± 15	
O=C(c1cc(-c2ccc(F)cc2)nc2ccccc12)N1CCC(NS(=O)(=O)c2cccs2)CC1 [Z212116604]			12 (≈ 5.95 µg/mL)	14.7 ± 9.6	99.4 ± 15	
O=C(Nc1nc(-c2cccc(C(F)(F)F)c2)cs1)C1CCN(C(=O)c2ccc(F)cc2)CC1 [Z318114792]			12 (≈ 5.73 µg/mL)	4.72 ± 3	102 ± 16.8	
O=C(Nc1ccc(O)cc1)C1CCN(C(=O)c2cccc(Oc3cccc(C(F)(F)F)c3)c2)CC1 [Z979305278]			12 (≈ 5.81 µg/mL)	31.2 ± 9.3	97.8 ± 16.3	
C(=N\Nc1nc(-c2ccccc2)c2ccccc2n1)/c1cccc2cccnc12 [Z1033301210]			12 (≈ 4.51 µg/mL)	46.7 ± 12.5	68.4 ± 16.8	> 100
Clc1ccc(-c2cc(Nc3ccccc3Cl)nc3ccccc23)cc1 [Z1143441182]			12 (≈ 4.38 µg/mL)	13.9 ± 12	105 ± 19.7	
Cc1ccc(-c2cc(-c3c(O)nc4ccccc4c3-c3ccccc3)nc3ccccc23)cc1 [Z1702969146]			12 (≈ 5.26 µg/mL)	27.1 ± 8.1	101 ± 17.6	
